The values that follow come from PMC3576842 (Cancer discovery, 2012).

For orientation: Cmax means the maximum level reached in the sampled fluid or tissue. Usually IC50 stands for the point on the concentration scale where inhibition reaches its midpoint.

In data set [1] the test system is PC-9/ER cells. The data set is described as follows: Anti-proliferative response of erlotinib-resistant PC-9 clone. Particulars: 10 μM erlotinib.
Data set [2] deals with PC-9 cells. The data set is described as follows: High-throughput tumor cell line screening / cell viability assay. It is filed as cell-based, human. Particulars: for effect on growth: even at high concentrations.
For data set [3], the system named is lung adenocarcinomas driven by EGFR L858R/T790M. The data set can be described thus: Genetically engineered NSCLC model. It is filed as in vivo, mice.
Data set [4] concerns the target EGFR L858R/T790M in NR6 cells (Homo sapiens, UniProt P00533, L858R/T790M). The data set can be described thus: Ligand-induced. It is filed as cell-based. The note with it: 16 hr, TGF-α 15 min.
In data set [5] the target is recombinant EGFR L858R/T790M (Homo sapiens, UniProt P00533, L858R/T790M). The data set is described as follows: EGFR autophosphorylation assay. The note with it: ATP, 15 min. It is filed as biochemical.
Data set [6] concerns the target wild-type EGFR in NR6 cells (Homo sapiens, UniProt P00533). The data set can be described thus: Ligand-induced. It is filed as cell-based. The note with it: for inhibition of ligand-induced EGFR phosphorylation: NR6 wild-type EGFR, TGF-α.
The test system of data set [7] is PC-9/ER xenografts (EGFR del E746_A750/T790M). The data set is described as follows: PC-9/ER xenograft study. The note with it: for tumor growth: daily oral gavage for 21 days, PKC412 100 mg/kg, WZ4002 25 mg/kg.
The nature of data set [8]: in vivo. The note with it: athymic nude, mouse, plasma, oral, 100 mg/kg.
The target in data set [9] is recombinant EGFR T790M (Homo sapiens, UniProt P00533, T790M). The data set can be described thus: EGFR autophosphorylation assay. Particulars: for inhibition of EGFR T790M autophosphorylation: ATP, 15 min; for concentrations as low as which inhibit EGFR T790M autophosphorylation: EGFR T790M mutants. It is filed as biochemical.
Data set [10] concerns NCI-H1975 tumor xenografts (EGFR L858R/T790M). The data set is described as follows: NCI-H1975 xenograft study. It is filed as in vivo, Balb/c nude mice.
The conditions of data set [11]: PKC412 225 mg/d for 28 days, solid tumor tissues; cited from earlier work.
Data set [12] addresses EGFR del E746_A750/T790M in erlotinib-resistant PC-9 cells (Homo sapiens, UniProt P00533, DEL746-750/T790M). The data set can be described thus: Drug wash-out assay. It is filed as cell-based.
The conditions of data set [13]: human, in vivo; cited from earlier work.
Data set [14] has as its target EGFR del E746_A750/T790M in NR6 cells (Homo sapiens, UniProt P00533, DEL746-750/T790M). The data set can be described thus: Ligand-induced. It is filed as cell-based. Particulars: 16 hr, TGF-α 15 min.
Data set [15] has as its target recombinant EGFR wild-type (Homo sapiens, UniProt P00533). The data set is described as follows: EGFR autophosphorylation assay. It is filed as biochemical.
Data set [16] concerns EGFR delE746_A750 mutant lines (PC-9, HCC827, HCC4006). The data set can be described thus: Cell viability assay. It is filed as cell-based, human. Particulars: read-out: IC50 cell viability; 72 hr; 3 NSCLC lines with EGFR delE746_A750.
The test system of data set [17] is PC-9 cells (EGFR del E746_A750). The data set is described as follows: EGFR signaling and apoptosis immunoblotting in PC-9 cells. It is filed as cell-based, human. For orientation: Immunoblotting shows a protein as a band on a membrane.
Data set [18] deals with NCI-H1975 cells (EGFR L858R/T790M). The data set can be described thus: Cell viability assay. It is filed as cell-based, human. The note with it: read-out: IC50 cell viability; 72 hr; L858R/T790M mutant line.
The subject of data set [19] is HCC827 cells. The data set can be described thus: High-throughput tumor cell line screening / cell viability assay. It is filed as cell-based, human.
In data set [20] the test system is HCC827 cells (EGFR del E746_A750). The data set can be described thus: EGFR signaling and apoptosis immunoblotting in HCC827 cells. It is filed as cell-based, human.
Where [21] appears, read: 1 μM, 72 hr, strong sensitivity defined as greater than 70% growth suppression.

Entries after “also recorded” stand apart in the source; their conditions may differ.

For `C#Cc1cccc(Nc2ncnc3cc(OCCOC)c(OCCOC)cc23)c1` [erlotinib], in [1], the anti-proliferative response result is “no anti-proliferative response”.
In the case of `CN1CCN(c2nc(C3=C(c4c[nH]c5ccccc45)C(=O)NC3=O)c3ccccc3n2)CC1` [sotrastaurin], the effect on growth result in data set [2] is recorded as “failed to detectably affect growth”.
`CO[C@@H]1[C@H](N(C)C(=O)c2ccccc2)C[C@H]2O[C@]1(C)n1c3ccccc3c3c4c(c5c6ccccc6n2c5c31)C(=O)NC4` [PKC412]: the weight loss result in data set [3] (4 weeks of PKC412 treatment) was “No significant weight loss”. Besides, the tumor growth entry is on record as “growth inhibited for the first two weeks of treatment” in data set [3] (4 weeks of treatment) and “tumors began to regress; also recorded: significant tumor regression” in [7]. Moreover, in data set [3] (treated for 5 days), the “phosphorylation of EGFR L858R/T790M in tumors” value is recorded as “significant decrease in phosphorylation”. Besides, the “inhibition of ligand-induced EGFR phosphorylation” value in [4] is on record as “similarly potent ability to inhibit”; in data set [6], “not significantly inhibited”. Also, the “inhibition of EGFR L858R/T790M autophosphorylation” value in [5] is given as “potently inhibit”. Besides, the “less activity against wild-type EGFR in drug-treated cells than irreversible EGFR inhibitors” value in data set [6] (PKC412 versus irreversible EGFR inhibitors) is 500 fold. For the same compound, the “EGFR signaling in tumors after the last dosing” value was “effective suppression of EGFR signaling” in [7] (Day 21, 4 hours after the last dosing) and “effective suppression of EGFR signaling” in data set [10] (4 hours after the last dosing). For the same compound, the body weight loss entry in data set [7] (daily oral 100 mg/kg, 21 days) is “no significant body weight loss”; in data set [10] (daily oral 100 mg/kg), “no significant body weight loss”. The compound further showed a Cmax in data set [8] of 2910 nM. In [8], this compound gave a concentration at 24 h of 659 nM. For the same compound, the “inhibition of EGFR T790M autophosphorylation” value in data set [9] was “potently inhibit”. The “concentrations as low as which inhibit EGFR T790M autophosphorylation” value in data set [9] was 3 to 30 nM. Moreover, in [10] (daily for 3 days, PKC412 100 or 200 mg/kg, gefitinib 100 mg/kg), the “suppression of phospho-EGFR and phospho-AKT in tumors” value is reported as “Significant suppression”. In addition, the “tumor growth suppression compared to control-treated animals” value in [10] (day 12, daily oral PKC412 100 mg/kg) is recorded as 50%. Besides, the “tissue concentration (median)” value in [11] was 593 nM. Moreover, the “nature of inhibition (recovery of pEGFR after wash-out)” value in data set [12] is “reversible”.
For the compound `CO[C@@H]1[C@H](N(C)C(=O)c2ccccc2)C[C@H]2O[C@]1(C)n1c3ccccc3c3c4c(c5c6ccccc6n2c5c31)C(=O)N[C@H]4O` [CGP52421], the “plasma concentration of metabolite” value in data set [13] is 20000 to 25000 nM.
For the compound `C=CC(=O)Nc1cccc(Oc2nc(Nc3ccc(N4CCN(C)CC4)cc3OC)ncc2Cl)c1` [WZ4002], the “inhibition of ligand-induced EGFR phosphorylation” value was “most potent inhibitor” in data set [14], “similarly potent ability to inhibit” in data set [4] and “modestly affected” in data set [6]. The “inhibition of EGFR L858R/T790M autophosphorylation” value in [5] was “potent suppression”. Further, the tumor growth entry in data set [7] is given as “efficiently inhibited”. The “inhibition of EGFR T790M autophosphorylation” value in data set [9] is “potent suppression”. Besides, the “concentrations as low as which inhibit EGFR T790M autophosphorylation” value in data set [9] came to 10 nM. In data set [15] (ATP, 15 min), the “inhibition of wild-type EGFR autophosphorylation” value is on record as “ineffective”. The “concentrations with detectable inhibition of wild-type EGFR” value in data set [15] (autophosphorylation) is “above 1 micromolar”.
On to `Cn1c2ccccc2c2c3c(c4c5ccccc5n(CCC#N)c4c21)CNC3=O` [Gö6976], for which the concentration for half-maximal inhibition (IC50) is 100 to 200 nM in data set [16] and about 800 nM in [18]. For the same compound, the “apoptosis (PARP cleavage)” value in data set [17] (PC-9) and in data set [20] (HCC827) was “promotes apoptosis” each time. Moreover, the “suppression of EGFR signaling” value in data set [17] (PC-9, 1 μM) was “suppressed EGFR signaling as efficiently as erlotinib”; in data set [20] (HCC827, 1 μM), “suppressed EGFR signaling as efficiently as erlotinib”. The “growth inhibition in cell line screen” value in [2] (setting [21]) and in data set [19] (setting [21]) was “strongly growth inhibited” each time.
For the compound `CN(C)CCCn1cc(C2=C(c3c[nH]c4ccccc34)C(=O)NC2=O)c2ccccc21` [bis-indolylmaleimide I], the effect on growth entry in data set [2] and in data set [19] (even at high concentrations) was “failed to detectably affect growth” in each case.
